Earlier results on five compounds are cited in patent US20160067273A1, “Compositions and methods for preparation of synthetic alpha-gal nanoparticles and for their clinical use” (priority 2014, published 2016).

The structures appear in SMILES notation.

For the series, the system named is human natural anti-Gal antibody. Conditions: equilibrium dialysis. For orientation: Equilibrium dialysis compares concentrations on both sides of a semipermeable membrane.

As to `CO[C@@H]1O[C@H](CO)[C@H](O)[C@H](O)[C@H]1O` [methyl-galactoside], the “fold by which affinity of anti-Gal to Galα1-3Galβ1-4GlcNAc is higher than the affinity to this carbohydrate” value (“fold by which affinity of anti-Gal” below) is 300 fold.

`CC(=O)N[C@H]1C(O)O[C@H](CO)[C@@H](O[C@@H]2O[C@H](CO)[C@H](O)[C@H](O[C@H]3O[C@H](CO)[C@H](O)[C@H](O)[C@H]3O)[C@H]2O)[C@@H]1O` (some centres unmarked) [Galα1-3Galβ1-4GlcNAc]: the “affinity (strength of binding) of anti-Gal to synthetic free oligosaccharide, rank” value is “highest”.

In the case of `OC[C@H]1O[C@H](O[C@H]2[C@@H](O)[C@@H](CO)OC(O)[C@@H]2O)[C@H](O)[C@@H](O)[C@H]1O` (some centres unmarked) [Galα1-3Gal], the “fold by which affinity of anti-Gal” value is on record as 10 fold.

In the case of `OC[C@H]1O[C@H](O[C@H]2[C@@H](O)[C@@H](CO)O[C@@H](O[C@H]3[C@H](O)[C@@H](O)C(O)O[C@@H]3CO)[C@@H]2O)[C@H](O)[C@@H](O)[C@H]1O` (some centres unmarked) [Galα1-3Galβ1-4Glc], the “affinity of anti-Gal lower than that to Galα1-3Galβ1-4GlcNAc” value was “approximately 30%”.

Take `OC[C@H]1O[C@H](OCC2O[C@@H](O)[C@H](O)[C@@H](O)[C@@H]2O)[C@H](O)[C@@H](O)[C@H]1O` (some centres unmarked) [melibiose, Galα1-6Glc]: the “fold by which affinity of anti-Gal” value is on record as 300 fold.
